# Assay results from patent US4423053A, “Derivatives of 2-amino-5-(o-sulphamidophenyl)-1,3,4-thiadiazol as antiviral agents and a process for the preparation thereof” (Societa Italo-Britannica L. Manetti-H. Roberts & Co., priority 1981, dated 1983).
# Like-named read-outs stand apart in the source and are kept apart here.
# Tests used:
# [1] = system: Herpes simplex virus type 2; assay: Activity in vitro on HSV2 for different times of administration after infection (Table C); type: cell-based
# Description: (§1) The tests were carried out inoculating virus of various kinds on living cells from different sources, forming the respective culture in tissue culture flasks, according to the method well known to those skilled in the art. The virus forms a plurality growing seats on the bottom of the tissue culture flasks, depending on the virus concentration and the test conditions, said seats being easily identifiable with the naked eye. In such a way it is possible to establish the controls. At the same time in the tissue culture flasks wherein the compound of the invention had been introduced, at various concentrations, an inhibition is observed, as shown by a number of growing seats lower than that of the controls. Said inhibition was calculated in percent as referred in the following tables. In order to ascertain the activity of compound G-413 "in vitro" at a dose of 10 μg on Herpes simplex virus type 2 for different times of administration, a test was effected introducing the compound into the cells after the virus infection.
# Polio 1 = type: cell-based
# HSV2 [2] = assay: Inhibition of virion production, HSV2 on HEp-2 cells (Table G); type: cell-based, Herpes simplex virus type 2
# HSV2 [3] = assay: Activity on kidney primary cells of rabbit with respect to HSV2 (Table I)
# [4] = system: virus Coxackie B, type 4 (COXB4); assay: Antiviral activity in vitro on Coxackie B type 4 at different doses (Table B); type: cell-based
# Description: as §1, with “Tests have been effected by using virus” for “In order to ascertain the activity of compound G-413 "in vitro" at a dose of 10 μg on”, “simplex,” for “simplex virus”, “(HSV2), and” for “for different times of administration, a test was effected introducing the compound into the cells after the”, “Coxackie B, type 4 (COXB4).” for “infection.”
# ECHO 2 = assay: Inhibition of virion production, ECHO 2 on HEp-2 cells (Table E); type: cell-based; details: ECHO 2 10^-6; 10^-7; 10^-8, HEp-2
# Description: (§2) The activity of the compound G-413 was assessed by the test of inhibition of virion production.
# (§3) The test was effected with various types of virus, on HEp-2 cells.
# Coxsackie B4 = assay: Inhibition of virion production, Coxsackie B4 on HEp-2 cells (Table F); type: cell-based
# Description: as §2, §3
# [5] = system: Herpes simplex virus type 2; assay: Antiviral activity in vitro on HSV2 at different doses (Table A); type: cell-based
# Description: as §1, with “Tests have been effected by using virus” for “In order to ascertain the activity of compound G-413 "in vitro" at a dose of 10 μg on”, “simplex,” for “simplex virus”, “(HSV2), and” for “for different times of administration, a test was effected introducing the compound into the cells after the”, “Coxackie B, type 4 (COXB4).” for “infection.”
# HSV2 [6] = assay: Activity on kidney secondary cells of rabbit YRK with respect to HSV2 (Table J)
# Adeno 17 = assay: Inhibition of virion production, Adeno 17 on HEp-2 cells (Table H); type: cell-based
# Description: as §2, §3
# [7] = Table D, Polio 1 10^-6, HEp-2, 20 μg per "Falcon"
# [8] = Table D, Polio 1 10^-7, HEp-2, 20 μg per "Falcon"
# [9] = Table D, Polio 1 10^-8, HEp-2, 20 μg per "Falcon"
smiles,measurement,setting,value
Nc1nnc(-c2ccccc2S(N)(=O)=O)s1 [G-413],inhibition,"[1]; HSV2 10^-2 + 10 μg, no delay","62,5%"
same,virus growth (HSV2 with G-413),"[1]; HSV2 10^-2 + 10 μg, no delay","7,5 PFU/ml"
same,inhibition,"[1]; HSV2 10^-2, 1 h later + 10 μg","45,0%"
same,virus growth (HSV2 with G-413),"[1]; HSV2 10^-2, 1 h later + 10 μg","11,0 PFU/ml"
same,inhibition,"[1]; HSV2 10^-2, 2 h later + 10 μg","60,0%"
same,virus growth (HSV2 with G-413),"[1]; HSV2 10^-2, 2 h later + 10 μg","8,0 PFU/ml"
same,inhibition,"[1]; HSV2 10^-2, 4 h later + 10 μg","77,0%"
same,virus growth (HSV2 with G-413),"[1]; HSV2 10^-2, 4 h later + 10 μg","4,5 PFU/ml"
same,inhibition,"[1]; HSV2 10^-2, 8 h later + 10 μg","85,0%"
same,virus growth (HSV2 with G-413),"[1]; HSV2 10^-2, 8 h later + 10 μg","3,0 PFU/ml"
same,inhibition,"[1]; HSV2 10^-2, 20 h later + 10 μg","42,5%"
same,virus growth (HSV2 with G-413),"[1]; HSV2 10^-2, 20 h later + 10 μg","11,5 PFU/ml"
same,inhibition of virion production,Polio 1; [7],"91,9%"
same,virion production,Polio 1; [7],29 PFU
same,inhibition of virion production,Polio 1; [8],"98,2%"
same,virion production,Polio 1; [8],5 PFU
same,inhibition of virion production,Polio 1; [9],"97,7%"
same,virion production,Polio 1; [9],4 PFU
same,inhibition of virion production,"HSV2 [2]; HSV2 10^-1, HEp-2","75,2%"
same,virion production,"HSV2 [2]; HSV2 10^-1, HEp-2",8 PFU
same,inhibition of virion production,"HSV2 [2]; HSV2 10^-2, HEp-2","75,0%"
same,virion production,"HSV2 [2]; HSV2 10^-2, HEp-2",5 PFU
same,inhibition of virion production,"HSV2 [2]; HSV2 10^-3, HEp-2","62,5%"
same,virion production,"HSV2 [2]; HSV2 10^-3, HEp-2",3 PFU
same,inhibition,"HSV2 [3]; HSV2 10^-1, 10 μg","38,1%"
same,virion production,"HSV2 [3]; HSV2 10^-1, 10 μg",13 PFU
same,inhibition,"HSV2 [3]; HSV2 10^-1, 50 μg","71,5%"
same,virion production,"HSV2 [3]; HSV2 10^-1, 50 μg",6 PFU
same,inhibition,"HSV2 [3]; HSV2 10^-2, 10 μg","23,0%"
same,virion production,"HSV2 [3]; HSV2 10^-2, 10 μg",7 PFU
same,inhibition,"HSV2 [3]; HSV2 10^-2, 50 μg","77,0%"
same,virion production,"HSV2 [3]; HSV2 10^-2, 50 μg",3 PFU
same,inhibition,"HSV2 [3]; HSV2 10^-3, 10 μg","50,0%"
same,virion production,"HSV2 [3]; HSV2 10^-3, 10 μg",2 PFU
same,inhibition,"HSV2 [3]; HSV2 10^-3, 50 μg","75,0%"
same,virion production,"HSV2 [3]; HSV2 10^-3, 50 μg",1 PFU
same,inhibition,"[4]; COXB4 10^-6, 2,5 μg","28,8%"
same,virus growth (COXB4 with G-413),"[4]; COXB4 10^-6, 2,5 μg","23,5 PFU/ml"
same,inhibition,"[4]; COXB4 10^-6, 5,0 μg","89,9%"
same,virus growth (COXB4 with G-413),"[4]; COXB4 10^-6, 5,0 μg","3,0 PFU/ml"
same,inhibition,"[4]; COXB4 10^-6, 10,0 μg","81,9%"
same,virus growth (COXB4 with G-413),"[4]; COXB4 10^-6, 10,0 μg","6,5 PFU/ml"
same,inhibition,"[4]; COXB4 10^-6, 20,0 μg","80,4%"
same,virus growth (COXB4 with G-413),"[4]; COXB4 10^-6, 20,0 μg","6,5 PFU/ml"
same,percent inhibition (in words),"[4]; COXB4, dose of 5 μg",very high percent inhibition
same,inhibition of virion production,ECHO 2,100%
same,inhibition of virion production,"Coxsackie B4; COX B4 10^-4, HEp-2","72,0%"
same,virion production,"Coxsackie B4; COX B4 10^-4, HEp-2",14 PFU
same,inhibition of virion production,"Coxsackie B4; COX B4 10^-5, HEp-2","83,7%"
same,virion production,"Coxsackie B4; COX B4 10^-5, HEp-2",7 PFU
same,inhibition of virion production,"Coxsackie B4; COX B4 10^-6, HEp-2","85,0%"
same,virion production,"Coxsackie B4; COX B4 10^-6, HEp-2",6 PFU
same,inhibition,"[5]; HSV2 10^-3, 2,5 μg","66,7%"
same,virus growth (HSV2 with G-413),"[5]; HSV2 10^-3, 2,5 μg","3,5 PFU/ml"
same,inhibition,"[5]; HSV2 10^-3, 5,0 μg","66,7%"
same,virus growth (HSV2 with G-413),"[5]; HSV2 10^-3, 5,0 μg","3,5 PFU/ml"
same,inhibition,"[5]; HSV2 10^-3, 10,0 μg","81,0%"
same,virus growth (HSV2 with G-413),"[5]; HSV2 10^-3, 10,0 μg","2,0 PFU/ml"
same,inhibition,"[5]; HSV2 10^-3, 20,0 μg","71,5%"
same,virus growth (HSV2 with G-413),"[5]; HSV2 10^-3, 20,0 μg","3,0 PFU/ml"
same,inhibition,"[5]; HSV2 10^-3, 30,0 μg","52,4%"
same,virus growth (HSV2 with G-413),"[5]; HSV2 10^-3, 30,0 μg","5,0 PFU/ml"
same,inhibition,"[5]; HSV2 10^-3, 40,0 μg","52,4%"
same,virus growth (HSV2 with G-413),"[5]; HSV2 10^-3, 40,0 μg","5,0 PFU/ml"
same,percent inhibition (in words),"[5]; HSV2, dose of 10 μg",very high percent inhibition
same,inhibition,"HSV2 [6]; HSV2 10^-2, 5 μg",10%
same,virion production,"HSV2 [6]; HSV2 10^-2, 5 μg",9 PFU
same,inhibition,"HSV2 [6]; HSV2 10^-2, 10 μg",30%
same,virion production,"HSV2 [6]; HSV2 10^-2, 10 μg",7 PFU
same,inhibition,"HSV2 [6]; HSV2 10^-2, 25 μg",40%
same,virion production,"HSV2 [6]; HSV2 10^-2, 25 μg",6 PFU
same,inhibition,"HSV2 [6]; HSV2 10^-2, 50 μg",70%
same,virion production,"HSV2 [6]; HSV2 10^-2, 50 μg",3 PFU
same,inhibition,"HSV2 [6]; HSV2 10^-2, 100 μg",70%
same,virion production,"HSV2 [6]; HSV2 10^-2, 100 μg",3 PFU
same,inhibition of virion production,"Adeno 17; Adeno 17 10^-4, HEp-2","65,0%"
same,virion production,"Adeno 17; Adeno 17 10^-4, HEp-2",35 PFU
same,inhibition of virion production,"Adeno 17; Adeno 17 10^-5, HEp-2","67,5%"
same,virion production,"Adeno 17; Adeno 17 10^-5, HEp-2",27 PFU
same,inhibition of virion production,"Adeno 17; Adeno 17 10^-6, HEp-2","63,4%"
same,virion production,"Adeno 17; Adeno 17 10^-6, HEp-2",22 PFU
CNc1nnc(-c2ccccc2S(N)(=O)=O)s1 [G-444],inhibition of virion production,"Polio 1; Table K, Polio 1 10^-6, HEp-2","64,8%"
same,virion production,"Polio 1; Table K, Polio 1 10^-6, HEp-2",113 PFU
same,inhibition of virion production,"Polio 1; Table K, Polio 1 10^-7, HEp-2","65,7%"
same,virion production,"Polio 1; Table K, Polio 1 10^-7, HEp-2",87 PFU
same,inhibition of virion production,"Polio 1; Table K, Polio 1 10^-8, HEp-2","26,6%"
same,virion production,"Polio 1; Table K, Polio 1 10^-8, HEp-2",83 PFU
C=CCNc1nnc(-c2ccccc2S(N)(=O)=O)s1 [G-445],inhibition of virion production,"Polio 1; Table K, Polio 1 10^-6, HEp-2","73,6%"
same,virion production,"Polio 1; Table K, Polio 1 10^-6, HEp-2",85 PFU
same,inhibition of virion production,"Polio 1; Table K, Polio 1 10^-7, HEp-2","73,2%"
same,virion production,"Polio 1; Table K, Polio 1 10^-7, HEp-2",68 PFU
same,inhibition of virion production,"Polio 1; Table K, Polio 1 10^-8, HEp-2","44,3%"
same,virion production,"Polio 1; Table K, Polio 1 10^-8, HEp-2",63 PFU
